In US8063065B2, “Azaindazole compounds as CCR1 receptor antagonists” (Boehringer Ingelheim International GmbH, priority 2008, dated 2011):

biological target: T1, CCR1 (Homo sapiens, UniProt P32246); assay: Method B: calcium flux in CCR1 transfected cells (Calcium 4 dye, […] FDSS6000), block of the CCR1/MIP-1α interaction; assay type: cell-based; settings: Method B: Calcium 4 dye, MIP-1alpha at EC80
T1 sequence (P32246 1-355): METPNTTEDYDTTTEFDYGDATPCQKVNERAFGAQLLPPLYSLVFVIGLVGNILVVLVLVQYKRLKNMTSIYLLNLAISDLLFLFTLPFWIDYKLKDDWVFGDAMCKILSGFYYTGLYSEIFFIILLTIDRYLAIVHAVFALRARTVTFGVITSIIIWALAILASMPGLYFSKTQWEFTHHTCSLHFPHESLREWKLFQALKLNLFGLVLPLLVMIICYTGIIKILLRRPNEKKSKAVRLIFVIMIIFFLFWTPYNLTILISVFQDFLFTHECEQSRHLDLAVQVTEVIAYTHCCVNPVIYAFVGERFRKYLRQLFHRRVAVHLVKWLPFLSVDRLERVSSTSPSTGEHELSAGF
In short: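 Non-adherent cells stably expressing CCR1 and G-alpha-16 were loaded with Calcium 4 dye plus probenecid for 1 h at room temperature. Compounds (top 3,000 nM, 4-fold, 10 doses, 1% DMSO) in HBSS/20 mM HEPES pH 7.4 were incubated 30 min at 37 C, then 30 min at room temperature. MIP-1α at EC80 was added and calcium flux read on FDSS6000.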

Compound | IC50 [nM]
CS(=O)(=O)c1cc([C@H](CC2COC(=O)O2)NC(=O)c2cncc3c2cnn3-c2ccc(F)cc2)ccn1 (stereo partly drawn) [1-(4-Fluorophenyl)-1H-pyrazolo[3,4-c]pyridine-4-carboxylic acid [(S)-1-(2-methanesulfonyl-pyridin-4-yl)-2-(2-oxo-1,3-dioxolan-4-yl)-ethyl]-amide] | 6
C=CC[C@H](NC(=O)c1cncc2c1cnn2-c1ccc(F)cc1)c1ccnc(S(C)(=O)=O)c1 [1-(4-Fluorophenyl)-1H-pyrazolo[3,4-c]pyridine-4-carboxylic acid [(S)-1-(2-methanesulfonyl-pyridin-4-yl)-but-3-enyl]-amide] | 0.3
C[C@H](NC(=O)c1cncc2c1cnn2-c1ccc(F)cc1)c1csc(S(C)(=O)=O)n1 [1-(4-Fluorophenyl)-1H-pyrazolo[3,4-c]pyridine-4-carboxylic acid [(S)-1-(2-methanesulfonyl-thiazol-4-yl)-ethyl]-amide] | 4
CC[C@H](NC(=O)c1cncc2c1cnn2-c1ccc(F)cc1)c1csc(S(C)(=O)=O)n1 [1-(4-Fluorophenyl)-1H-pyrazolo[3,4-c]pyridine-4-carboxylic acid [(S)-1-(2-methanesulfonyl-thiazol-4-yl)-propyl]-amide] | 0.4
C[C@H](NC(=O)c1cncc2c1cnn2-c1ccc(F)cc1)c1cnc(S(C)(=O)=O)s1 [1-(4-Fluorophenyl)-1H-pyrazolo[3,4-c]pyridine-4-carboxylic acid [(S)-1-(2-methanesulfonyl-thiazol-5-yl)-ethyl]-amide] | 6
CC[C@H](NC(=O)c1cncc2c1cnn2-c1ccc(F)cc1)c1cnc(S(C)(=O)=O)s1 [1-(4-Fluorophenyl)-1H-pyrazolo[3,4-c]pyridine-4-carboxylic acid [(S)-1-(2-methanesulfonyl-thiazol-5-yl)-propyl]-amide] | 0.6
CC[C@H](NC(=O)c1cncc2c1cnn2-c1ccc(F)cc1)c1ccnc(C)c1 [1-(4-Fluorophenyl)-1H-pyrazolo[3,4-c]pyridine-4-carboxylic acid [(S)-1-(2-methyl-pyridin-4-yl)-propyl]-amide] | 0.9
CC[C@H](NC(=O)c1cncc2c1cnn2-c1ccc(F)cc1)c1ccnc(NC)c1 [1-(4-Fluorophenyl)-1H-pyrazolo[3,4-c]pyridine-4-carboxylic acid [(S)-1-(2-methylamino-pyridin-4-yl)-propyl]-amide] | 4
CSc1ncc([C@H](C)NC(=O)c2cncc3c2cnn3-c2ccc(F)cc2)o1 [1-(4-Fluorophenyl)-1H-pyrazolo[3,4-c]pyridine-4-carboxylic acid [(S)-1-(2-methylsulfanyl-oxazol-5-yl)-ethyl]-amide] | 6
CC[C@H](NC(=O)c1cncc2c1cnn2-c1ccc(F)cc1)c1cnc(SC)o1 [1-(4-Fluorophenyl)-1H-pyrazolo[3,4-c]pyridine-4-carboxylic acid [(S)-1-(2-methylsulfanyl-oxazol-5-yl)-propyl]-amide] | 1
CC[C@H](NC(=O)c1cncc2c1cnn2-c1ccc(F)cc1)c1ccnc(SC)c1 [1-(4-Fluorophenyl)-1H-pyrazolo[3,4-c]pyridine-4-carboxylic acid [(S)-1-(2-methylsulfanyl-pyridin-4-yl)-propyl]-amide] | 0.2
CC[C@H](NC(=O)c1cncc2c1cnn2-c1ccc(F)cc1)c1ccnc(N2CCOCC2)c1 [1-(4-Fluorophenyl)-1H-pyrazolo[3,4-c]pyridine-4-carboxylic acid [(S)-1-(2-morpholin-4-yl-pyridin-4-yl)-propyl]-amide] | 0.7
C[C@H](NC(=O)c1cncc2c1cnn2-c1ccc(F)cc1)c1ccnc(S(N)(=O)=O)c1 [1-(4-Fluorophenyl)-1H-pyrazolo[3,4-c]pyridine-4-carboxylic acid [(S)-1-(2-sulfamoyl-pyridin-4-yl)-ethyl]-amide] | 3
CC[C@H](NC(=O)c1cncc2c1cnn2-c1ccc(F)cc1)c1ccnc(S(N)(=O)=O)c1 [1-(4-Fluorophenyl)-1H-pyrazolo[3,4-c]pyridine-4-carboxylic acid [(S)-1-(2-sulfamoyl-pyridin-4-yl)-propyl]-amide] | 0.4
CC[C@H](NC(=O)c1cncc2c1cnn2-c1ccc(F)cc1)c1ccc(OC)c(Br)c1 [1-(4-Fluorophenyl)-1H-pyrazolo[3,4-c]pyridine-4-carboxylic acid [(S)-1-(3-bromo-4-methoxy-phenyl)-propyl]-amide] | 7
CC[C@H](NC(=O)c1cncc2c1cnn2-c1ccc(F)cc1)c1cc(Br)no1 [1-(4-Fluorophenyl)-1H-pyrazolo[3,4-c]pyridine-4-carboxylic acid [(S)-1-(3-bromo-isoxazol-5-yl)-propyl]-amide] | 28
C[C@H](NC(=O)c1cncc2c1cnn2-c1ccc(F)cc1)c1cccc(Cl)c1 [1-(4-Fluorophenyl)-1H-pyrazolo[3,4-c]pyridine-4-carboxylic acid [(S)-1-(3-chlorophenyl)-ethyl]-amide] | 5

The next lines start with the values.

IC50 [nM] | Compound
0.4 | CC[C@H](NC(=O)c1cncc2c1cnn2-c1ccc(F)cc1)c1cccc(Cl)c1 [1-(4-Fluorophenyl)-1H-pyrazolo[3,4-c]pyridine-4-carboxylic acid [(S)-1-(3-chlorophenyl)-propyl]-amide]
0.6 | CC[C@H](NC(=O)c1cncc2c1cnn2-c1ccc(F)cc1)c1ccc(S(C)(=O)=O)c(O)c1 [1-(4-Fluorophenyl)-1H-pyrazolo[3,4-c]pyridine-4-carboxylic acid [(S)-1-(3-hydroxy-4-methanesulfonyl-phenyl)-propyl]-amide]
6 | CC[C@H](NC(=O)c1cncc2c1cnn2-c1ccc(F)cc1)c1ccc(OC)c(S(C)(=O)=O)c1 [1-(4-Fluorophenyl)-1H-pyrazolo[3,4-c]pyridine-4-carboxylic acid [(S)-1-(3-methanesulfonyl-4-methoxy-phenyl)-propyl]-amide]
1 | C[C@H](NC(=O)c1cncc2c1cnn2-c1ccc(F)cc1)c1cccc(S(C)(=O)=O)c1 [1-(4-Fluorophenyl)-1H-pyrazolo[3,4-c]pyridine-4-carboxylic acid [(S)-1-(3-methanesulfonyl-phenyl)-ethyl]-amide]
0.3 | CC[C@H](NC(=O)c1cncc2c1cnn2-c1ccc(F)cc1)c1cccc(S(C)(=O)=O)c1 [1-(4-Fluorophenyl)-1H-pyrazolo[3,4-c]pyridine-4-carboxylic acid [(S)-1-(3-methanesulfonyl-phenyl)-propyl]-amide]
3 | CC[C@H](NC(=O)c1cncc2c1cnn2-c1ccc(F)cc1)c1ccnc(N2CCC(F)(F)CC2)c1 [1-(4-Fluorophenyl)-1H-pyrazolo[3,4-c]pyridine-4-carboxylic acid [(S)-1-(4,4-difluoro-3,4,5,6-tetrahydro-2H-[1,2′]bipyridinyl-4′-yl)-propyl]-amide]
0.5 | CC[C@H](NC(=O)c1cncc2c1cnn2-c1ccc(F)cc1)c1ccc(Br)c(OC)c1 [1-(4-Fluorophenyl)-1H-pyrazolo[3,4-c]pyridine-4-carboxylic acid [(S)-1-(4-bromo-3-methoxy-phenyl)-propyl]-amide]
24 | C[C@H](NC(=O)c1cncc2c1cnn2-c1ccc(F)cc1)c1nc(Br)cs1 [1-(4-Fluorophenyl)-1H-pyrazolo[3,4-c]pyridine-4-carboxylic acid [(S)-1-(4-bromo-thiazol-2-yl)-ethyl]-amide]
0.8 | CC[C@H](NC(=O)c1cncc2c1cnn2-c1ccc(F)cc1)c1nc(Br)cs1 [1-(4-Fluorophenyl)-1H-pyrazolo[3,4-c]pyridine-4-carboxylic acid [(S)-1-(4-bromo-thiazol-2-yl)-propyl]-amide]
8 | CC[C@H](NC(=O)c1cncc2c1cnn2-c1ccc(F)cc1)c1nc(C(N)=O)cs1 [1-(4-Fluorophenyl)-1H-pyrazolo[3,4-c]pyridine-4-carboxylic acid [(S)-1-(4-carbamoyl-thiazol-2-yl)-propyl]-amide]
0.2 | CC[C@H](NC(=O)c1cncc2c1cnn2-c1ccc(F)cc1)c1ccc(O)c(S(C)(=O)=O)c1 [1-(4-Fluorophenyl)-1H-pyrazolo[3,4-c]pyridine-4-carboxylic acid [(S)-1-(4-hydroxy-3-methanesulfonyl-phenyl)-propyl]-amide]
1 | CC[C@H](NC(=O)c1cncc2c1cnn2-c1ccc(F)cc1)c1cc(S(C)(=O)=O)c[nH]1 [1-(4-Fluorophenyl)-1H-pyrazolo[3,4-c]pyridine-4-carboxylic acid [(S)-1-(4-methanesulfonyl-1H-pyrrol-2-yl)-propyl]-amide]
13 | CC[C@H](NC(=O)c1cncc2c1cnn2-c1ccc(F)cc1)c1ccnc(N2CCC(S(C)(=O)=O)CC2)c1 [1-(4-Fluorophenyl)-1H-pyrazolo[3,4-c]pyridine-4-carboxylic acid [(S)-1-(4-methanesulfonyl-3,4,5,6-tetrahydro-2H-[1,2′]bipyridinyl-4′-yl)-propyl]-amide]
0.2 | CC[C@H](NC(=O)c1cncc2c1cnn2-c1ccc(F)cc1)c1ccc(S(C)(=O)=O)c(OC)c1 [1-(4-Fluorophenyl)-1H-pyrazolo[3,4-c]pyridine-4-carboxylic acid [(S)-1-(4-methanesulfonyl-3-methoxy-phenyl)-propyl]-amide]
6 | CC[C@H](NC(=O)c1cncc2c1cnn2-c1ccc(F)cc1)c1cc(S(C)(=O)=O)co1 [1-(4-Fluorophenyl)-1H-pyrazolo[3,4-c]pyridine-4-carboxylic acid [(S)-1-(4-methanesulfonyl-furan-2-yl)-propyl]-amide]
